Assay results: US20230158071A1, “TUMOR COMBINED IMMUNOTHERAPY” (CRAGE medical Co., Limited, priority 2018, published 2023)

Tests used:
Format in all cases: cell-based, mouse
E0771-EGFRvIII cells = experiment: CCK8 proliferation assay, olaparib on E0771-EGFRvIII breast cancer cells
From the text: (§1) Since the EGFR287-302 epitope is only exposed in EGFRvIII or tumors overexpressing EGFR, this epitope is hidden in normal tissues (Gan H K et al., Targeting of a conformationally exposed, tumor-specific epitope of EGFR as a strategy for cancer therapy. Cancer Res. 2012, 72(12):2924-2930), conventional methods in molecular biology are used to establish E0771, 4T1 mouse breast cancer cell models (E0771-EGFRvIII, 4T1-EGFRvIII) that overexpress mouse EGFR inserted with amino acid epitope at positions 287-302 of human EGFR. Subsequent research is performed to screen EGFRvIII target-positive cells by cell flow cytometry (FIG. 2A). E0771, 4T1 cells are purchased from the American Type Culture Collection (ATCC).
(§2) As an effective inhibitor of PARP1, olaparib may inhibit PARP1 to participate in DNA damage repair process. In mouse breast cancer cell lines and mouse T cells and CART cells, different levels of PARP1 expression are detected (FIG. 2B). Therefore, CCK8 proliferation assay is required to detect the effect of olaparib on proliferation of tumor cells and CART cells.
(§3) 806-m28Z CAR-T cells in Example 1 are taken to spread in a 96-well plate with 1×10^4 cells per well and 100 μl medium. Breast cancer cells E0771-EGFRvIII and 4T1-EGFRvIII are taken to spread in a 96-well plate with 1×10^4 cells per well and 100 μl medium. Different concentrations of olaparib are taken to add to the cells to make 10 concentration gradients (i.e., the treatment concentrations of olaparib are respectively 50 μM, 20 μM, 10 μM, 5 μM, 2.5 μM, 1 μM, 0.1 μM, 0.01 μM, 0.001 μM, 0 μg/ml). After 48 hours of drug treatment for cells of different groups, 10 μl of CCK8 substrate color reagent (Dojindo) is added to each well; after incubating for 1 hour at 37° C., the absorbance at 450 nm is measured by a microplate reader, calculating the cell viability respectively.
(§4) The formula for calculating the cell viability is as follows:
(§5) Cell viability (%)=[A (adding drug)−A (blank)]/[A (without adding drug)−A (blank)]

4T1-EGFRvIII cells [1] = experiment: CCK8 proliferation assay, olaparib on 4T1-EGFRvIII breast cancer cells
From the text: as §1, §2, §3, §4, §5

4T1-EGFRvIII cells [2] = experiment: LDH cytotoxicity assay, CAR-T killing of olaparib-treated 4T1-EGFRvIII cells
Protocol: The experimental groups for incubating with cells that are positive for the antigen target comprises the following 4 groups: UTD group, 806-mCD28z-CAR-T group (or denoted as 806-28Z), olaparib pretreatment group, and olaparib combined treatment group;
the olaparib pretreatment group comprises: UTD+1 μM olaparib pretreatment group (or denoted as UTD+Olaparib 1 μM pretreatment), UTD+5 μM olaparib pretreatment group (or denoted as UTD+Olaparib 5 μM pretreatment), 806-mCD28z-CAR-T+1 μM olaparib pretreatment group (or denoted as 806-28Z+Olaparib 1 μM pretreatment). 806-mCD28z-CAR-T+5 μM olaparib pretreatment group (or denoted as 806-28Z+Olaparib 5 μM pretreatment); […]
Olaparib pretreatment group: different concentrations of olaparib (1 μM, 5 μM) are added to the medium for culturing E0771-EGFRVIII or 4T1-EGFRvIII tumor cells respectively, culturing at 37° C. for 24 h, and then the cells are treated with trypsin and resuspended in fresh medium. The untreated mouse T cells and 806-mCD28z-CAR T cells in Example 1 are respectively taken to incubate with E0771-EGFRvIII or 4T1-EGFRVIII cells pretreated with different concentrations of olaparib at a ratio of 1:3, 1:1, and 3:1; 16 hours later, the secretion of LDH in the supernatant is detected by Cytox 96 Non-Radioactive Cytotoxicity Assay, then calculating the killing toxicity of 806-mCD28z CAR T cells to tumor cells pretreated with different concentrations of olaparib. […] Cytox 96 Non-Radioactive Cytotoxicity Assay (Promaga, REF: G1782); at the same time, the secretions of cytokines Granzyme B, IFN-γ, and IL-2 in the supernatant are detected by ELISA kit (Lianke Biotech Co. Ltd. CAT: 18^.22), for specific experimental procedures, referring to instructions of MouseGranzyme B, IFN-γ, IL-2 ELISA kit from Lianke Biotech Co, Ltd. […]

[3] = 1 μM and higher concentration of olaparib, 48 hours, CCK8

## O=C(c1cc(Cc2n[nH]c(=O)c3ccccc23)ccc1F)N1CCN(C(=O)C2CC2)CC1 [olaparib]
E0771-EGFRvIII cells; [3]
  inhibition rate of proliferation of E0771-EGFRVIII cell line: 65%-90%
E0771-EGFRvIII cells; 1 μM olaparib
  proliferation of E0771-EGFRVIII cells: inhibited
E0771-EGFRvIII cells; in vitro, tumor cells not specified further
  concentration that may inhibit the growth of tumor cells: higher than 104
E0771-EGFRvIII cells; olaparib
  proliferation of E0771-EGFRVIIII cells: inhibited
4T1-EGFRvIII cells [1]; [3]
  inhibition rate of proliferation of 4T1-EGFRvIII cell line: 30-40%
4T1-EGFRvIII cells [1]; 1 μM olaparib
  proliferation of 4T1-EGFRvIII cells: inhibited
4T1-EGFRvIII cells [1]; 504 olaparib
  proliferation of 4T1-EGFRvIII cells: inhibited
4T1-EGFRvIII cells [2]; 5 μM olaparib combined treatment group
  lethal effect on 4T1-EGFRvIII cells compared with the CAR-T single treatment group: higher synergistic lethal effect
4T1-EGFRvIII cells [2]; 5 μM olaparib pretreatment group, better than 5 μM combined treatment group
  promotion of the killing effect of CAR-T cells on 4T1-EGFRvIII cells: most significant
4T1-EGFRvIII cells [2]; olaparib 1 μM or 5 μM, pretreatment or combined treatment, vs CAR-T alone, ratio 1:3, 1:1, 3:1, 16 hours, LDH
  killing effect of CAR-T cells on 4T1-EGFRvIII cells: significantly improved
